Test results from patent US20210388455A1 (priority 2020, published 2021).
Like-named read-outs stand apart in the source and are kept apart here.

Key:
[1] = target: ACE2 binding to SARS-CoV-2 S1-RBD (Homo sapiens, UniProt Q9BYF1); experiment: ELISA of ACE2/S1-RBD inhibitory activity; set-up: species or system human ACE2 / SARS-CoV-2; details: recombinant 2019-nCoV S1-RBD coated plate, read-out: IC50 inhibiting ACE2 binding to SARS-CoV-2 S1-RBD
SARS-CoV-2 [2] = type: cell-based
VeroE6-EGFP cells = details: no virus
SARS-CoV-2 [3] = details: known values of FDA approved drugs; cited from earlier work

Sequence of ACE2 binding to SARS-CoV-2 S1-RBD (Q9BYF1 18-740): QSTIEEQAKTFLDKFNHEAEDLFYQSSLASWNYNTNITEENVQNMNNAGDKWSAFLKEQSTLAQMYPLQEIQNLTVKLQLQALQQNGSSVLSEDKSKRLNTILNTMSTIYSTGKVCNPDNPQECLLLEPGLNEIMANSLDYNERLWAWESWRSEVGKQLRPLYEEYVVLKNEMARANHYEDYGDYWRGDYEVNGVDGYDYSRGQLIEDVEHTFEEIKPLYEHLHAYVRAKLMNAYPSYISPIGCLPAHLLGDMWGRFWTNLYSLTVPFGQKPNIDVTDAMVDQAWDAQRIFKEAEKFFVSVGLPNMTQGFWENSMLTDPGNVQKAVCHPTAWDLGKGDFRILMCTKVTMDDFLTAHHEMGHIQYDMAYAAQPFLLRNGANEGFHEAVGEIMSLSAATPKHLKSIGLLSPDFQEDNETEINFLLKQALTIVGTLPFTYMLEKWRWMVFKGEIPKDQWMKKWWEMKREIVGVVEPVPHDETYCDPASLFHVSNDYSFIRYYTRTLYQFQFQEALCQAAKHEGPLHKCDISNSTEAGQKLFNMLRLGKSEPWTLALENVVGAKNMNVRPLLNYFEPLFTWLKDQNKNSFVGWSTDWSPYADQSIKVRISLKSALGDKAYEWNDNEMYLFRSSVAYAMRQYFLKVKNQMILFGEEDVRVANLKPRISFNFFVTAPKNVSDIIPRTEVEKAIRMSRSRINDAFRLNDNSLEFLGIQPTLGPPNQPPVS

In the case of Kobophenol A, the IC50 [1] is reported as 1.81 ± 0.04 µM, the EC50 (SARS-CoV-2 [2]) is reported as 71.6 µM and the CC50 (VeroE6-EGFP cells) is reported as over 100 µM.
For CC(C)(C)NC(=O)[C@@H]1CN(Cc2cccnc2)CCN1C[C@@H](O)C[C@@H](Cc1ccccc1)C(=O)N[C@H]1c2ccccc2C[C@H]1O [Indinavir], the EC50 (SARS-CoV-2 [3]) is listed as 59.1 µM.
For Nc1nc2c(ncn2CCC(CO)CO)c(=O)[nH]1 [Penciclovir], the EC50 (SARS-CoV-2 [3]) is given as 96 µM.
